smiles,measurement,value
"COc1ccc2c(c1)CCC=C2c1ccc(OCCN2CCCC2)cc1 [Example 1, 1-{2-[4-(6-Methoxy-3,4-dihydronaphthalene-1-yl)phenoxy]ethyl}pyrrolidine]",melting point,71 to 75 °C
